Structures can show the parent of a compound that is named as a salt. Where two headings read alike, the source gives them in different places.
System: cGMP-PDE V
Experiment: c-GMP-PDE V inhibitory activity
Assay type: biochemical, various animal species and man
Protocol: The cGMP-PDE and other PDE isozymes were isolated from cardiovascular tissues (heart and aorta) of various animal species and man by anion-exchange and affinity chromatography as described by Silver et al., Sec. Messeng. Phos. 13:13-25, 1991; PDE activity, in the presence and absence of test compounds was determined essentially as described by Thompson et al., Adv. Cyclic Nucleotide Res. 10:69-92. To determine the potency and selectivity of compounds as PDE inhibitors, compounds are screened for their effect on cyclic nucleotide hydrolysis at 10 μM. […] The IC50 values are calculated from concentration-response curves as described by Tallarida and Murray, Manual of Pharmacologic Calculations with Computer Programs, Procedure 8, Graded Dose-response, pp. 14-19, Springer-Verlag, New York, 1981.

[1] = separate experimental runs, first value
[2] = separate experimental runs, second value
[3] = separate experimental runs, third value

CCn1nc(C)c2c(NCC3CCCCC3)c3ccccc3nc21 [2(c), 1-ethyl-3-methyl-N-(cyclohexylmethyl)-1H-pyrazolo[3,4-b]quinolin-4-amine hydrochloride] gave an IC50 of 82 nM.
With CCn1ncc2c(NCC3CCCCC3)c3cccc(OC)c3nc21 [9(f), 1-ethyl-8-methoxy-N-(cyclohexylmethyl)-1H-pyrazolo[3,4-b]quinolin-4-amine] the IC50 was 610 nM.
c1ccc2c(NCC3CCCCC3)c3cnn(C4CCCC4)c3nc2c1 [11(e), 1-cyclopentyl-N-(cyclohexylmethyl)-1H-pyrazolo[3,4-b]quinolin-4-amine] gave an IC50 of 150 nM.
Molecule CC[C@H](Nc1c2cc([N+](=O)[O-])ccc2nc2c1cnn2CC)C1CCCCC1 [Example 54, 1-ethyl-6-nitro-N-[S(+)-1-(cyclohexyl)propyl]-1H-pyrazolo[3,4-b]quinolin-4-amine] has an IC50 [1] of 5.9 nM and an IC50 [2] of 8.8 nM.
CCn1ncc2c(NCC3CCCCC3)c3ccc([N+](=O)[O-])cc3nc21 [16(c), 1-ethyl-7-nitro-N-(cyclohexylmethyl)-1H-pyrazolo[3,4-b]quinolin-4-amine] gave an IC50 of 150 nM.
CCN(CC)S(=O)(=O)c1ccc2nc3c(cnn3C(C)C)c(NCC3CCCCC3)c2c1 [45(d), 1-isopropyl-6-(diethylaminosulfonyl)-N-(cyclohexylmethyl)-1H-pyrazolo[3,4-b]quinolin-4-amine] showed an IC50 of 44 nM.
For CCn1ncc2c(NCC3CCCCC3)c3cc(OCCN(C)C)ccc3nc21 [Example 12], the IC50 was 240 nM.
With CCn1ncc2c(N[C@@H](C)C3CCCCC3)c3cc(C#N)ccc3nc21 [41(c), 1-ethyl-6-cyano-N-[S(+)-(1-cyclohexyl)ethyl]-1H-pyrazolo[3,4-b]quinolin-4-amine] the IC50 was 0.96 nM.
CCn1ncc2c(N[C@H](C)C3CCCCC3)c3cc([N+](=O)[O-])ccc3nc21 [Example 35, 1-ethyl-6-nitro-N-[R (-)-1(cyclohexyl)ethyl]-1H-pyrazolo[3,4-b]quinolin-4amine] showed an IC50 [1] of 8.6 nM, an IC50 [2] of 9.5 nM and an IC50 [3] of 9.5 nM.
With CCn1ncc2c(NCC3CCCCC3)c3cc(C(=O)OC)ccc3nc21 [29(d), 1-ethyl-6-methoxycarbonyl-N-(cyclohexylmethyl)-1H-pyrazolo[3,4-b]quinolin-4-amine] the IC50 was 15 nM.
CCn1ncc2c(NCC3CCC(=O)CC3)c3cc(OC)ccc3nc21 [28(b), 1-ethyl-6-methoxy-N-[4-oxocyclohexylmethyl]-1H-pyrazolo[3,4-b]quinolin-4-amine] was tested, and the “Percent Inhibition cGMP-PDE V” value (0.1 μM) was 0%, the “Percent Inhibition cGMP-PDE V” value (1 μM) was 25% and the “Percent Inhibition cGMP-PDE V” value (10 μM) was 79%.
Work on CCn1ncc2c(NCC3CCCCC3)c3cc(-c4ccncc4)ccc3nc21 [Example 31] yielded an IC50 of 32 nM.
For CCn1ncc2c(NCC3CCCCC3)c3ccc(N)cc3nc21 [Example 25, 1-ethyl-7-amino-N-(cyclohexylmethyl)-1H-pyrazolo[3,4-b]quinolin-4-amine], the “Percent Inhibition cGMP-PDE V” value (0.1 μM) was 7%, the “Percent Inhibition cGMP-PDE V” value (1 μM) was 68% and the “Percent Inhibition cGMP-PDE V” value (10 μM) was 95%.
Molecule CCn1ncc2c(N[C@@H](CO)C3CCCCC3)c3cc([N+](=O)[O-])ccc3nc21 [40(c), 1-ethyl-6-nitro-N-[R-(-)-1-(cyclohexyl)ethanol]-1H-pyrazolo[3,4-b]quinolin-4-amine] has an IC50 of 2.4 nM.
For CCn1ncc2c(N[C@@H](C)C3CCCCC3)c3cc(OC)c(OC)cc3nc21 [42(c)], the IC50 was 112 nM.
Work on CCn1ncc2c(N[C@@H](C)C3CCCCC3)c3cc(Br)ccc3nc21 [Example 46, 1-ethyl-6-bromo-N-[S(+)-1-(cyclohexyl)ethyl]-1H-pyrazolo[3,4-b]quinolin-4-amine] yielded an IC50 of 0.37 nM.
For c1ccc(Cn2ncc3c(NCC4CCCCC4)c4ccccc4nc32)cc1 [10(d), 1-phenylmethyl-N-(cyclohexylmethyl)-1H-pyrazolo[3,4-b]quinolin-4-amine], the IC50 was 260 nM.
CCn1ncc2c(N[C@@H](C)C3CCCCC3)c3cc(S(=O)(=O)C(F)(F)F)ccc3nc21 [53(c), 1-ethyl-6-(trifluoromethylsulfonyl)-N-[S (+)-1-(cyclohexyl)ethyl]-1H-pyrazolo[3,4-b]quinolin-4-amine] showed an IC50 of 5.4 nM.
CCn1ncc2c(N[C@@H](C)C3CCCCC3)c3cc([S+](C)[O-])ccc3nc21 (single isomer, unassigned) [48(e), 1-ethyl-6-(methylsulfinyl)-N-[S(+)-1-(cyclohexyl)ethyl]-1H-pyrazolo[3,4-b]quinolin-4-amine] gave an IC50 of 7.6 nM.
Molecule CCn1ncc2c(N[C@@H](C)C3CCCCC3)c3ccccc3nc21 [Example 39, 1-ethyl-N-[S(+)-1-(cyclohexyl)ethyl]-1H-pyrazolo[3,4-b]quinolin-4-amine] has an IC50 of 15 nM.
CCn1ncc2c(NCC3CCCCC3)c3cc(C(=O)O)ccc3nc21 [Example 30, 1-ethyl-6-carboxy-N-(cyclohexylmethyl)-1H-pyrazolo[3,4-b]quinolin-4-amine] was tested, and the IC50 was 30 nM.
Work on CCn1ncc2c(NCC3CC3)c3ccccc3nc21 [Example 4, 1-ethyl-N-(cyclopropylmethyl)-1H-pyrazolo[3,4-b]quinolin-4-amine] yielded an IC50 of 3000 nM.
Work on CCn1ncc2c(N[C@@H](C)C3CCCCC3)c3cc(-n4cccn4)ccc3nc21 [Example 52, 1-ethyl-6-(1-pyrazolyl)-N-[S(+)-1-(cyclohexyl)ethyl]-1H-pyrazolo[3,4-b]quinolin-4-amine] yielded an IC50 [1] of 0.2 nM and an IC50 [2] of 0.27 nM.
With CCn1ncc2c(NCC3CCCCC3)c3cc(NC(C)=O)ccc3nc21 [24(c), 1-ethyl-6-acetamido-N-(cyclohexylmethyl)-1H-pyrazolo[3,4-b]quinolin-4-amine] the IC50 was 51 nM.
CCn1ncc2c(N[C@@H](C)C3CCCCC3)c3cc(-n4ccnc4)ccc3nc21 [Example 43, 1-ethyl-6-(1-imidazolyl)-N-[S(+)-1-(cyclohexyl)ethyl]-1H-pyrazolo[3,4-b]quinolin-4-amine] gave an IC50 of 27 nM.
CCn1ncc2c(N[C@H](C)C3CCCCC3)c3cc(OC)ccc3nc21 [Example 27, 1-ethyl-6-methoxy-N-[R(-)-1-(cyclohexyl)ethyl]-1H-pyrazolo[3,4-b]quinolin-4-amine] was tested, and the IC50 [1] was 340 nM, the IC50 [2] was 210 nM and the IC50 [3] was 266 nM.
Work on CCn1ncc2c(NCC3CCCCC3)c3cc(OCCN4CCOCC4)ccc3nc21 [Example 33, 1-ethyl-6-[2-(4-morpholinyl)ethoxy]-N-(cyclohexylmethyl)-1H-pyrazolo[3,4-b]quinolin-4-amine] yielded an IC50 of 92 nM.
C[C@H](Nc1c2ccccc2nc2c1cnn2Cc1ccccc1)C1CCCCC1 [Example 38, 1-benzyl-N-[S (+)-1(cyclohexyl)ethyl]-1H-pyrazolo[3,4-b]quinolin-4-amine] was tested, and the “Percent Inhibition cGMP-PDE V” value (0.01 μM) was 9%, the “Percent Inhibition cGMP-PDE V” value (0.1 μM) was 22% and the “Percent Inhibition cGMP-PDE V” value (1 μM) was 77%.
With CCn1ncc2c(NCC3CCCCC3)c3cccc(Br)c3nc21 [44(d), 1-ethyl-8-bromo-N-(cyclohexylmethyl)-1H-pyrazolo[3,4-b]quinolin-4-amine] the “Percent Inhibition cGMP-PDE V” value (0.01 μM) was 17%, the “Percent Inhibition cGMP-PDE V” value (0.1 μM) was 20% and the “Percent Inhibition cGMP-PDE V” value (1 μM) was 70%.
For C=Cc1ccc2nc3c(cnn3CC)c(N[C@@H](C)C3CCCCC3)c2c1 [Example 55, 1-ethyl-6-(ethenyl)-N-[S(+)-1(cyclohexyl)ethyl]-1H-pyrazolo[3,4-b]quinolin-4-amine], the “Percent Inhibition cGMP-PDE V” value (0.001 μM) was 58%, the “Percent Inhibition cGMP-PDE V” value (0.01 μM) was 91% and the “Percent Inhibition cGMP-PDE V” value (0.1 μM) was 96%.
Work on CCn1ncc2c(NCC3CCCCC3)c3ccc(OC)cc3nc21 [18(d), 1-ethyl-7-methoxy-N-(cyclohexylmethyl)-1H-pyrazolo[3,4-b]quinolin-4-amine] yielded an IC50 of 147 nM.

— patent US5488055A, “Substituted N-cycloalkylmethyl-1H-pyrazolo(3,4-b)quinolin-4 amines and compositions and methods of use thereof” (Sanofi Winthrop Inc., priority 1995, dated 1996)
